The numbers were not newly measured in patent US6555519B2, “O-glucosylated benzamide SGLT2 inhibitors and method” (Bristol-Myers Squibb Company, priority 2000, dated 2003), which cites them from elsewhere.

One data set deals with T1, human SGLT1 (Homo sapiens, UniProt P13866).
T1 sequence (P13866 1-664): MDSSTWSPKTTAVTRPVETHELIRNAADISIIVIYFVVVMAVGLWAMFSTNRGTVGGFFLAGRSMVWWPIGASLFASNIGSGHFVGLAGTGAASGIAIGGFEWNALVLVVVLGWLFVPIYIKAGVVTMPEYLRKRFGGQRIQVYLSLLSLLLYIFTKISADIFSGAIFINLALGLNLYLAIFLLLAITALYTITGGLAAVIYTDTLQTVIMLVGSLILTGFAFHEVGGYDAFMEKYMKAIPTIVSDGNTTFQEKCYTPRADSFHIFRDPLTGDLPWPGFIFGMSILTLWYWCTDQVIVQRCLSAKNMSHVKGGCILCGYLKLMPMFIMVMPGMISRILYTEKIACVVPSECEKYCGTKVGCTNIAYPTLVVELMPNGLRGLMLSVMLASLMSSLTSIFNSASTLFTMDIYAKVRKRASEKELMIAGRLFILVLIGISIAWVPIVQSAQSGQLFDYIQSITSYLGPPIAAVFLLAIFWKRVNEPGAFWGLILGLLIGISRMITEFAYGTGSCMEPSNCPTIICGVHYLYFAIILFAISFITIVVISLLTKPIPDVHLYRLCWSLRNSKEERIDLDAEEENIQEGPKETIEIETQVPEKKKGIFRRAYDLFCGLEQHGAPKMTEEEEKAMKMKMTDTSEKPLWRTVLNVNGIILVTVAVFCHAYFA
Particulars: SGLT1 transporter; read-out: Km values for uptake.

For a further data set, the target named is T2, human SGLT2 (Homo sapiens, UniProt P31639).
T2 sequence (P31639 1-672): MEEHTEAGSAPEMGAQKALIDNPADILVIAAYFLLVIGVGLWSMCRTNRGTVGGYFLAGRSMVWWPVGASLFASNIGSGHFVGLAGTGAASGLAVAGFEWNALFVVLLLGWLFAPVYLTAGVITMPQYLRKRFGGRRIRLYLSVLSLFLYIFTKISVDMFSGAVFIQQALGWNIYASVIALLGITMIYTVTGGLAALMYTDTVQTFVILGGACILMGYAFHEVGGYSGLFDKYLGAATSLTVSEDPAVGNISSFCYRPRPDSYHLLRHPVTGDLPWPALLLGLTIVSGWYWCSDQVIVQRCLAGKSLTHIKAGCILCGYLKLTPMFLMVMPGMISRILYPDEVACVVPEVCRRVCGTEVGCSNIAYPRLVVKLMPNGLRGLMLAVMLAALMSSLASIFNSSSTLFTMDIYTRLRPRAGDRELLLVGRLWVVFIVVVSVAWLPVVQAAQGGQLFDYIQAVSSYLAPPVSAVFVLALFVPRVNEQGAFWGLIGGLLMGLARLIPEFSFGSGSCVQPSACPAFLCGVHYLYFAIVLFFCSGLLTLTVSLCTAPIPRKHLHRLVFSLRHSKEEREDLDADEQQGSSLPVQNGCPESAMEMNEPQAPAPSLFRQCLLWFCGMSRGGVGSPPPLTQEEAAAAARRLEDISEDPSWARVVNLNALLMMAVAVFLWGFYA
Particulars: SGLT2 transporter; read-out: Km values for uptake.

Each structure is given as a SMILES string.

Consider `CO[C@H]1O[C@H](CO)[C@@H](O)[C@H](O)[C@H]1O` [AMG, α-methyl-D-glucopyranoside], for which the figures for the Km at human SGLT1 and on human SGLT2 were 400 µM and 1600 µM, respectively.
